Measured values as given in patent US20230278972A1, “SUBSTITUTED HALOALKYL SULFONANILIDE HERBICIDES” (FMC Corporation, priority 2020, published 2023).

Experiments:
Type in all cases: in vivo
[1] = system: galium (catchweed bedstraw, Galium aparine); assay: Test A postemergence, galium; conditions: Postemergence, 0 to 100 scale (0 no effect, 100 complete control); for Galium plant response rating: visual injury vs untreated controls after approx. 10 days
Method in brief: (§1)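 Preemergence: pigweed seeds in loam soil–sand blend received a directed soil spray of test chemicals in a non-phytotoxic solvent with surfactant. Postemergence: barnyardgrass, wheat and galium in pots of the same soil, 2 to 10 cm tall at one- to two-leaf stage, sprayed with the same formulation.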

[2] = system: Ryegrass, Italian (Italian ryegrass, Lolium multiflorum); assay: Test A preemergence, Ryegrass, Italian; conditions: Preemergence; for Plant response rating, Ryegrass, Italian: 0 to 100 scale (0 no effect, 100 complete control)
Method in brief: (§2)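 Pots: loam soil/sand blend. Pre: directed soil spray at planting. Post: plants 2–10 cm, 1–2 leaf stage. Formulation: non-phytotoxic solvent + surfactant.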

[3] = system: blackgrass (Alopecurus myosuroides); assay: Test A postemergence, blackgrass; conditions: Postemergence, 0 to 100 scale (0 no effect, 100 complete control); for Blackgrass plant response rating: visual injury vs untreated controls after approx. 10 days
Method in brief: as §2

[4] = system: ragweed (common ragweed, Ambrosia artemisiifolia); assay: Test A preemergence, ragweed; conditions: Preemergence; for Plant response rating, Ragweed: 0 to 100 scale (0 no effect, 100 complete control)
Method in brief: as §2

[5] = system: pigweed (Amaranthus retroflexus); assay: Test A preemergence, pigweed; conditions: for Plant response rating, Pigweed: 0 to 100 scale (0 no effect, 100 complete control)
Method in brief: as §1

kochia (Bassia scoparia) [6] = assay: Test A preemergence, kochia; conditions: Preemergence; for Plant response rating, Kochia: 0 to 100 scale (0 no effect, 100 complete control)
Method in brief: as §2

corn (Zea mays) = assay: Test A postemergence, corn; conditions: Postemergence, 0 to 100 scale (0 no effect, 100 complete control); for Corn plant response rating: visual injury vs untreated controls after approx. 10 days
Method in brief: as §2

[7] = system: barnyardgrass (Echinochloa crus-galli); assay: Test A preemergence, barnyardgrass; conditions: Preemergence; for Plant response rating, Barnyardgrass: 0 to 100 scale (0 no effect, 100 complete control)
Method in brief: as §2

[8] = system: pigweed (Amaranthus retroflexus); assay: Test A postemergence, pigweed; conditions: Postemergence, 0 to 100 scale (0 no effect, 100 complete control); for Pigweed plant response rating: visual injury vs untreated controls after approx. 10 days
Method in brief: as §2

[9] = system: barnyardgrass (Echinochloa crus-galli); assay: Test A postemergence, barnyardgrass; conditions: Postemergence, 0 to 100 scale (0 no effect, 100 complete control); for Barnyardgrass plant response rating: visual injury vs untreated controls after approx. 10 days
Method in brief: as §1

[10] = system: wheat (Triticum aestivum); assay: Test A postemergence, wheat; conditions: Postemergence, 0 to 100 scale (0 no effect, 100 complete control); for Wheat plant response rating: visual injury vs untreated controls after approx. 10 days
Method in brief: as §1

[11] = system: ragweed (common ragweed, Ambrosia artemisiifolia); assay: Test A postemergence, ragweed; conditions: Postemergence, 0 to 100 scale (0 no effect, 100 complete control); for Ragweed plant response rating: visual injury vs untreated controls after approx. 10 days
Method in brief: as §2

[12] = system: Foxtail, Giant (giant foxtail, Setaria faberi); assay: Test A preemergence, Foxtail, Giant; conditions: Preemergence; for Plant response rating, Foxtail, Giant: 0 to 100 scale (0 no effect, 100 complete control)
Method in brief: as §2

[13] = system: Ryegrass, Italian (Italian ryegrass, Lolium multiflorum); assay: Test A postemergence, Ryegrass, Italian; conditions: Postemergence, 0 to 100 scale (0 no effect, 100 complete control); for Ryegrass, Italian plant response rating: visual injury vs untreated controls after approx. 10 days
Method in brief: as §2

kochia (Bassia scoparia) [14] = assay: Test A postemergence, kochia; conditions: Postemergence, 0 to 100 scale (0 no effect, 100 complete control); for Kochia plant response rating: visual injury vs untreated controls after approx. 10 days
Method in brief: as §2

[15] = system: Foxtail, Giant (giant foxtail, Setaria faberi); assay: Test A postemergence, Foxtail, Giant; conditions: Postemergence, 0 to 100 scale (0 no effect, 100 complete control); for Foxtail, Giant plant response rating: visual injury vs untreated controls after approx. 10 days
Method in brief: as §2

[16] = 125 g ai/ha, visual injury, approx. 10 days
[17] = 125 g ai/ha, visual injury approx. 10 days
[18] = 500 g ai/ha, visual injury, approx. 10 days
[19] = 125 g ai/ha, visual injury on 0 to 100 scale (0 no effect, 100 complete control), approximately 10 days

SMILES: Cc1cc(Cl)c(NS(=O)(=O)C(F)(F)F)cc1C1=NOC(C)(C)C1 [Compound 203]
- Plant response rating, Galium ([1]; 125 g ai/ha): 80
- Galium plant response rating ([1]; 500 g ai/ha): 90
- Plant response rating, Ryegrass, Italian [2, 16]: 50
- Plant response rating, Ryegrass, Italian ([2]; 500 g ai/ha): 100
- Plant response rating, Blackgrass ([3]; 125 g ai/ha): 20
- Blackgrass plant response rating ([3]; 500 g ai/ha): 30
- Plant response rating, Ragweed [4, 16]: 80
- Plant response rating, Ragweed ([4]; 500 g ai/ha): 90
- Plant response rating, Pigweed [5, 16]: 60
- Plant response rating, Pigweed ([5]; 500 g ai/ha): 100
- Plant response rating, Kochia (kochia (Bassia scoparia) [6]; [16]): 60
- Plant response rating, Kochia (kochia (Bassia scoparia) [6]; 500 g ai/ha): 90
- Plant response rating, Corn (corn (Zea mays); 125 g ai/ha): 10
- Corn plant response rating (corn (Zea mays); 500 g ai/ha): 60
- Plant response rating, Barnyardgrass [7, 16]: 90
- Plant response rating, Barnyardgrass ([7]; 500 g ai/ha): 90
- Plant response rating, Pigweed ([8]; 125 g ai/ha): 20
- Pigweed plant response rating ([8]; 500 g ai/ha): 60
- Plant response rating, Barnyardgrass ([9]; 125 g ai/ha): 60
- Barnyardgrass plant response rating ([9]; 500 g ai/ha): 80
- Plant response rating, Wheat ([10]; 125 g ai/ha): 40
- Wheat plant response rating ([10]; 500 g ai/ha): 70
- Plant response rating, Ragweed ([11]; 125 g ai/ha): 70
- Ragweed plant response rating ([11]; 500 g ai/ha): 90
- Plant response rating, Foxtail, Giant [12, 16]: 30
- Plant response rating, Foxtail, Giant ([12]; 500 g ai/ha): 100
- Plant response rating, Ryegrass, Italian ([13]; 125 g ai/ha): 0
- Ryegrass, Italian plant response rating ([13]; 500 g ai/ha): 60
- Plant response rating, Kochia (kochia (Bassia scoparia) [14]; 125 g ai/ha): 40
- Kochia plant response rating (kochia (Bassia scoparia) [14]; 500 g ai/ha): 80
- Plant response rating, Foxtail, Giant ([15]; 125 g ai/ha): 0
- Foxtail, Giant plant response rating ([15]; 500 g ai/ha): 50

SMILES: Cc1cc(Cl)c(NS(=O)(=O)C(F)(F)F)cc1C(=O)N1CC(C)OC(C)C1 (stereo not drawn) [Compound 20]
- Plant response rating, Galium [1, 17]: 90
- Plant response rating, Galium [1, 18]: 90
- Ryegrass, Italian plant response rating [2, 19]: 50
- Plant response rating, Ryegrass, Italian ([2]; 500 g ai/ha): 100
- Plant response rating, Blackgrass [3, 17]: 30
- Plant response rating, Blackgrass [3, 18]: 30
- Ragweed plant response rating [4, 19]: 90
- Plant response rating, Ragweed ([4]; 500 g ai/ha): 100
- Pigweed plant response rating [5, 19]: 20
- Plant response rating, Pigweed ([5]; 500 g ai/ha): 80
- Kochia plant response rating (kochia (Bassia scoparia) [6]; [19]): 40
- Plant response rating, Kochia (kochia (Bassia scoparia) [6]; 500 g ai/ha): 90
- Plant response rating, Corn (corn (Zea mays); [17]): 10
- Plant response rating, Corn (corn (Zea mays); [18]): 70
- Barnyardgrass plant response rating [7, 19]: 100
- Plant response rating, Barnyardgrass ([7]; 500 g ai/ha): 100
- Plant response rating, Pigweed [8, 17]: 30
- Plant response rating, Pigweed [8, 18]: 80
- Plant response rating, Barnyardgrass [9, 17]: 60
- Plant response rating, Barnyardgrass [9, 18]: 80
- Plant response rating, Wheat [10, 17]: 60
- Plant response rating, Wheat [10, 18]: 70
- Plant response rating, Ragweed [11, 17]: 80
- Plant response rating, Ragweed [11, 18]: 80
- Foxtail, Giant plant response rating [12, 19]: 80
- Plant response rating, Foxtail, Giant ([12]; 500 g ai/ha): 100
- Plant response rating, Ryegrass, Italian [13, 17]: 70
- Plant response rating, Ryegrass, Italian [13, 18]: 70
- Plant response rating, Kochia (kochia (Bassia scoparia) [14]; [17]): 10
- Plant response rating, Kochia (kochia (Bassia scoparia) [14]; [18]): 30
- Plant response rating, Foxtail, Giant [15, 17]: 60
- Plant response rating, Foxtail, Giant [15, 18]: 90

SMILES: C#CCN(C)C(=O)c1cc(NS(=O)(=O)C(F)(F)F)c(C)cc1C [Compound 189]
- Plant response rating, Galium ([1]; 125 g ai/ha): 90
- Galium plant response rating ([1]; 500 g ai/ha): 90
- Plant response rating, Ryegrass, Italian [2, 16]: 90
- Plant response rating, Ryegrass, Italian ([2]; 500 g ai/ha): 100
- Plant response rating, Blackgrass ([3]; 125 g ai/ha): 30
- Blackgrass plant response rating ([3]; 500 g ai/ha): 20
- Plant response rating, Ragweed [4, 16]: 80
- Plant response rating, Ragweed ([4]; 500 g ai/ha): 90
- Plant response rating, Pigweed [5, 16]: 90
- Plant response rating, Pigweed ([5]; 500 g ai/ha): 100
- Plant response rating, Kochia (kochia (Bassia scoparia) [6]; [16]): 80
- Plant response rating, Kochia (kochia (Bassia scoparia) [6]; 500 g ai/ha): 100
- Plant response rating, Corn (corn (Zea mays); 125 g ai/ha): 20
- Corn plant response rating (corn (Zea mays); 500 g ai/ha): 80
- Plant response rating, Barnyardgrass [7, 16]: 80
- Plant response rating, Barnyardgrass ([7]; 500 g ai/ha): 100
- Plant response rating, Pigweed ([8]; 125 g ai/ha): 60
- Pigweed plant response rating ([8]; 500 g ai/ha): 90
- Plant response rating, Barnyardgrass ([9]; 125 g ai/ha): 80
- Barnyardgrass plant response rating ([9]; 500 g ai/ha): 90
- Plant response rating, Wheat ([10]; 125 g ai/ha): 50
- Wheat plant response rating ([10]; 500 g ai/ha): 70
- Plant response rating, Ragweed ([11]; 125 g ai/ha): 90
- Ragweed plant response rating ([11]; 500 g ai/ha): 90
- Plant response rating, Foxtail, Giant [12, 16]: 100
- Plant response rating, Foxtail, Giant ([12]; 500 g ai/ha): 100
- Plant response rating, Ryegrass, Italian ([13]; 125 g ai/ha): 80
- Ryegrass, Italian plant response rating ([13]; 500 g ai/ha): 80
- Plant response rating, Kochia (kochia (Bassia scoparia) [14]; 125 g ai/ha): 20
- Kochia plant response rating (kochia (Bassia scoparia) [14]; 500 g ai/ha): 80
- Plant response rating, Foxtail, Giant ([15]; 125 g ai/ha): 60
- Foxtail, Giant plant response rating ([15]; 500 g ai/ha): 90
